Source: US9284323B2, “Naphthalene acetic acid derivatives against HIV infection” (Gilead Sciences, Inc., priority 2012, dated 2016)

These compounds were tested on HIV-IIIb (assay: Test A: Antiviral Assays in MT4 Cells). Details: Human immunodeficiency virus 1, IIIB, MT4, 120 h, Table I; MT-4 cells infected with HIV-IIIb, 5 days incubation, CellTiter-Glo readout.
Type: cell-based
Method: The antiviral properties of a compound disclosed herein may be determined using Test A described below.
Test A: Antiviral Assays in MT4 Cells
For the antiviral assay utilizing MT-4 cells, 0.4 μL of […] test concentration of 3-fold serially diluted compound in DMSO was added to 40 μL of cell growth medium (RPMI 1640, 10% FBS, 1% penicillin/Streptomycin, 1% L-Glutamine, 1% HEPES) in each well of 384-well assay plates (10 concentrations) in quadruplicate.
1 mL aliquots of 2×10e6 MT-4 cells are pre-infected for 1 and 3 hrs respectively, @ 37° C. with 25 μL (MT4) or of either cell growth medium (mock-infected) or a fresh 1:250 dilution of an HIV-IIIb concentrated ABI stock (0.004 m.o.i. for MT4 cells). Infected and uninfected cells are diluted in cell growth medium and 35 μL of 2000 (for MT4) cells is added to each well of the assay plates.
Assay plates were then incubated in a 37° C. incubator. After 5 days of incubation, 25 μl of 2× concentrated CellTiter-Glo™ Reagent (catalog # G7573, Promega Biosciences, Inc., Madison, Wis.) was added to each well of the assay plate. Cell lysis was carried out by incubating at room temperature for 2-3 min and then chemiluminescence was read using the Envision reader (PerkinElmer).

Row | SMILES | EC50 [µM]
1 | CC(C)(C)O[C@H](C(=O)O)c1c(-c2ccc3c4c(ccnc24)CCO3)c2ccccc2c2ccccc12 (atropisomer, axis not shown) [Example 24, (S)-2-tert-Butoxy-2-((R)-10-(2,3-dihydropyrano[4,3,2-de]quinolin-7-yl)phenanthren-9-yl)acetic acid] | 0.109
2 | Cc1cc2ccc(C#CC(C)(O)c3ccccc3)cc2c(-c2ccc(Cl)cc2)c1[C@H](OC(C)(C)C)C(=O)O (stereo in doubt) [Example 14, (S)-2-tert-butoxy-2-(1-(4-chlorophenyl)-7-((R)-3-hydroxy-3-phenylbut-1-ynyl)-3-methylnaphthalen-2-yl)acetic acid] | 0.056
3 | CCCCC(C)(C)O[C@H](C(=O)O)c1c(C)cc2ccccc2c1-c1ccc2c3c(ccnc13)CCO2 (atropisomer, axis not shown) [Example 30, (S)-2-((S)-1-(2,3-Dihydropyrano[4,3,2-de]quinolin-7-yl)-3-methylnaphthalen-2-yl)-2-(2-methylhexan-2-yloxy)acetic acid] | 0.084
4 | Cc1nc(C)c(C(C)(O)C#Cc2ccc3cc(C)c([C@H](OC(C)(C)C)C(=O)O)c(-c4ccc(Cl)cc4)c3c2)s1 (stereo partly drawn) [Example 13, (2S)-2-tert-Butoxy-2-(1-(4-chlorophenyl)-7-(3-(2,4-dimethylthiazol-5-yl)-3-hydroxybut-1-ynyl)-3-methylnaphthalen-2-yl)acetic acid] | 0.065

Same assay, conditions: Human immunodeficiency virus 1, IIIB, MT4, 120 h, Table II; MT-4 cells infected with HIV-IIIb, 5 days incubation, CellTiter-Glo readout

Row | SMILES | EC50 [µM]
5 | Cc1ccc2c(-c3ccc4c5c(ccnc35)CCO4)c([C@H](OC(C)(C)CF)C(=O)O)c(C)cc2c1 (atropisomer, axis not shown) [Example 64] | 0.00872
6 | COc1ncc(-c2ccc3c(-c4ccc5c6c(ccnc46)CCO5)c([C@H](OC(C)(C)C)C(=O)O)c(C)cc3c2)c(O)n1 (atropisomer, axis not shown) [Example 47] | 0.0592
7 | COc1c(C)c([C@H](OC(C)(C)C)C(=O)O)c(-c2ccc3c4c(ccnc24)CCO3)c2ccccc12 (atropisomer, axis not shown) [Example 82] | 0.0432
8 | COc1ncc(-c2ccc3c(-c4ccc5c6c(ccnc46)CCO5)c([C@H](OC(C)(C)C)C(=O)O)c(C)cc3c2)c(OC)n1 (atropisomer, axis not shown) [Example 49] | 0.0138
9 | Cc1cc2cc(-c3cnc(N4CCCC4)nc3)ccc2c(-c2ccc3c4c(ccnc24)CCO3)c1[C@H](OC(C)(C)C)C(=O)O (atropisomer, axis not shown) [Example 51] | 0.0205
10 | Cc1c([C@H](OC(C)(C)C)C(=O)O)c(-c2ccc3c4c(ccnc24)CCO3)c2ccccc2c1N (atropisomer, axis not shown) [Example 93] | 0.00792

Same assay, conditions: Table I; MT-4 cells infected with HIV-IIIb, 5 days incubation, CellTiter-Glo readout

Row | SMILES | EC50 [µM]
11 | COCC(C)(C)O[C@H](C(=O)O)c1c(C)cc2ccccc2c1-c1ccc2c3c(ccnc13)CCO2 (atropisomer, axis not shown) [Example 26, (2S)-2-((S)-1-(2,3-Dihydropyrano[4,3,2-de]quinolin-7-yl)-3-methylnaphthalen-2-yl)-2-(1-methoxy-2-methylpropan-2-yloxy)acetic acid] | 0.929

Same assay, conditions: Table II; MT-4 cells infected with HIV-IIIb, 5 days incubation, CellTiter-Glo readout

Row | SMILES | EC50 [µM]
12 | Cc1cc2cc(-c3c(C)ncnc3C)ccc2c(-c2ccc3c4c(ccnc24)CCO3)c1[C@H](OC(C)(C)C)C(=O)O (atropisomer, axis not shown) [Example 58] | 7.76
13 | Cc1cc2cc(-c3cncnc3N)ccc2c(-c2ccc3c4c(ccnc24)CCO3)c1[C@H](OC(C)(C)C)C(=O)O (atropisomer, axis not shown) [Example 54] | 19.4
14 | Cc1cc2c(C)c(-c3cncnc3)ccc2c(-c2ccc3c4c(ccnc24)CCO3)c1[C@H](OC(C)(C)C)C(=O)O (atropisomer, axis not shown) [Example 80] | 0.0211
15 | CC(C)(C)O[C@H](C(=O)O)c1c2c(c3ccccc3c1-c1ccc3c4c(ccnc14)CCO3)OCC2 (atropisomer, axis not shown) [Example 78] | 0.0458
16 | CC(C)(C)O[C@H](C(=O)O)c1c2c(c3ccccc3c1-c1ccc3c4c(ccnc14)CCO3)OCC2 (atropisomer, axis not shown) [Example 79] | 9.91
